# Columns and labels:
# apple leaf cuticles [1] = experiment: Membrane penetration test, penetration of MCPA (potassium salt); format: in vitro ADME; conditions: MCPA potassium alone, 1.0 g/L ai in spray liquid; 25° C./56% rel. air humidity
# Experimental: (§1) The potential of the C8/10 glucamide, which is independent of the surfactant action, to promote foliar absorption of active agrochemical ingredients was determined in membrane penetration tests with apple or pear leaf cuticles. […] The stomata-free cuticles were first dried under air and then installed into stainless steel diffusion cells. After application to the original upper side of the leaf and evaporation of the test liquid, i.e. of the aqueous preparations of the active ingredients without or with the C8/10-glucamide-containing spray liquids or comparative compositions, the diffusion cells were transferred into thermostatted blocks and charged with aqueous liquid. The water used to make up the aqueous test liquids was local tap water (of known composition). At regular intervals, samples were taken and, irrespective of the test system, the proportion of active ingredient penetrated was determined either by HPLC or scintillation measurement. […] In all other HPLC variants, only an aliquot was taken. During the experiment, the temperature in the system (block, diffusion cells, liquids, etc.) and the air humidity above the spray coating on the cuticle were known exactly and were monitored. […] The analytical determination was effected either by means of HPLC (1290 Infinity, Agilent) or analysis of radioactivity (Tricarb, Perkin Elmer). […]
# apple leaf cuticles [2] = experiment: Membrane penetration test, penetration of 2,4-D DMA with antagonistic calcium; format: in vitro ADME; conditions: 2,4-D DMA alone, 5 g/L ai; 177 ppm Ca; 25° C./56% rel. air humidity
# Experimental: as §1
# apple leaf cuticles [3] = experiment: Membrane penetration test, penetration of sulcotrione; format: in vitro ADME; conditions: sulcotrione alone, 0.2 g/L ai; 20° C./60% rel. air humidity
# Experimental: as §1
# apple leaf cuticles [4] = experiment: Membrane penetration test, penetration of dicamba (acid); conditions: dicamba (acid) alone, 1.0 g/L ai; normal tap water (85 ppm Ca); 20° C./60% rel. air humidity
# Excerpt: The stomata-free cuticles were first dried under air and then installed into stainless steel diffusion cells. […] The water used to make up the aqueous test liquids was local tap water (of known composition). […] In each case, the geometric mean values of the penetration for intact membranes at the mean measurement times are given.
structure (smiles),measurement,setting,value
"Cc1cc(Cl)ccc1OCC(=O)[O-].[K+] [MCPA potassium, MCPA]",Mean penetration of MCPA (potassium salt) after 4 h,apple leaf cuticles [1],1.6%
same,Mean penetration of MCPA (potassium salt) after 1 day,apple leaf cuticles [1],7.2%
"CNC.O=C(O)COc1ccc(Cl)cc1Cl [2,4-D DMA, 2,4-D]","Mean penetration of 2,4-D DMA after 4 h",apple leaf cuticles [2],0.2%
same,"Mean penetration of 2,4-D DMA after 1 day",apple leaf cuticles [2],0.3%
"CS(=O)(=O)c1ccc(C(=O)C2C(=O)CCCC2=O)c(Cl)c1 [Sulcotrione, sulcotrione]",Mean penetration of sulcotrione after 5 h,apple leaf cuticles [3],<1%
same,Mean penetration of sulcotrione after 1 day,apple leaf cuticles [3],<1%
"COc1c(Cl)ccc(Cl)c1C(=O)O [Dicamba (acid), dicamba]",Mean penetration of dicamba (acid) after 5 h,apple leaf cuticles [4],4.4%
same,Mean penetration of dicamba (acid) after 1 day,apple leaf cuticles [4],12.4%

# Source: patent US20170055524A1, “Aqueous Adjuvant Composition For Increasing The Efficacy Of Electrolyte Active Substances” (priority 2014, published 2017)
